ChEMBL document CHEMBL1201862, “PubChem BioAssay data set” (2004)
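Values below derive from 48-hour exposures of cells grown in 96-well plates, with endpoints linearly interpolated between the two concentrations bracketing the appropriate inhibition level. GI50 marks 50% less growth.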 Active and inactive are the calls of the source. No stated cut-off is given here; in the data, active = GI50 up to about 1.1 µM and inactive = higher.

How the values were obtained:
Test in all cases: DTP human tumour cell line panel, 48 h
OVCAR-5 = test system: OVCAR-5
COLO 205 = test system: COLO 205
SW-620 = test system: SW-620
HCC 2998 = test system: HCC 2998
SK-MEL-5 = test system: SK-MEL-5
PC-3 = test system: PC-3
HCT-116 = test system: HCT-116
SR = test system: SR
NCI-H23 = test system: NCI-H23
CCRF-CEM = test system: CCRF-CEM
OVCAR-3 = test system: OVCAR-3
MDA-MB-435 = test system: MDA-MB-435
NCI-H460 = test system: NCI-H460
HCT-15 = test system: HCT-15
SK-OV-3 = test system: SK-OV-3
SF-268 = test system: SF-268
Hs-578T = test system: Hs-578T
LOX IMVI = test system: LOX IMVI
HOP-62 = test system: HOP-62
Malme-3M = test system: Malme-3M

Row | SMILES | GI50 (OVCAR-5) | GI50 (COLO 205) | GI50 (SW-620) | GI50 (HCC 2998) | GI50 (SK-MEL-5) | GI50 (PC-3) | GI50 (HCT-116) | GI50 (SR) | GI50 (NCI-H23) | GI50 (CCRF-CEM) | GI50 (OVCAR-3) | GI50 (MDA-MB-435) | GI50 (NCI-H460) | GI50 (HCT-15) [µM] | GI50 (SK-OV-3) | GI50 (SF-268) | GI50 (Hs-578T) | GI50 (LOX IMVI) | GI50 (HOP-62) | GI50 (Malme-3M)
1 | Cc1ccsc1C(=S)Nc1ccc(Cl)c(/C=N/OC(C)C)c1 | > 100 µM (inactive) | 18.7 µM (inactive) | 34.3 µM (inactive) | 22.9 µM (inactive) | 25.2 µM (inactive) | 80.7 µM (inactive) | 27.4 µM (inactive) | 16.3 µM (inactive) | 20.1 µM (inactive) | 38.1 µM (inactive) | 44.8 µM (inactive) | 49.3 µM (inactive) | 32.7 µM (inactive) | 15.5 | 55.5 µM (inactive) | 86.3 µM (inactive) | 45.8 µM (inactive) | 29.8 µM (inactive) | 64.9 µM (inactive) | 35.1 µM (inactive)
2 | Cc1cc(=O)oc2c(C)c3oc(CBr)c(Br)c3cc12 | 27.4 µM (inactive) | 28.2 µM (inactive) | 16.9 µM (inactive) | 19.3 µM (inactive) | 18.2 µM (inactive) | 40.4 µM (inactive) | 26.9 µM (inactive) | 27.7 µM (inactive) | 39 µM (inactive) | 10.4 µM (inactive) | > 100 µM (inactive) | 43.3 µM (inactive) | 18.9 µM (inactive) | 30.1 | 43.3 µM (inactive) | 25.6 µM (inactive) | 44.1 µM (inactive) | 12.6 µM (inactive) | 27 µM (inactive) | > 10 µM (inactive)
3 | COc1ccc(/C=C2\CCC(CNc3ccc(S(N)(=O)=O)cc3)C2=O)cc1 (stereo not given) | 21.6 µM (inactive) | 16.6 µM (inactive) | 1.95 µM (inactive) | 33.3 µM (inactive) | 16.3 µM (inactive) | 21.9 µM (inactive) | 8.65 µM (inactive) | 1.9 µM (inactive) | 19.7 µM (inactive) | 2.29 µM (inactive) | 9.04 µM (inactive) | 18.3 µM (inactive) | 31.3 µM (inactive) | 4.71 | > 100 µM (inactive) | 22.5 µM (inactive) | 43 µM (inactive) | 9.89 µM (inactive) | 37.8 µM (inactive) | 16 µM (inactive)
